Results reported in patent US6900193B1, “Structural modification of 19-norprogesterone I: 17-α-substituted-11-β-substituted-4-aryl and 21-substituted 19-norpregnadienedione as new antiprogestational agents” (The United States of America as represented by the …, priority 1996, dated 2005).
Blank lines part the entries; values can stand above or below the compound they belong to.

Key:
[1] = molecular target: T1, progesterone receptor (estrogen-primed rabbit uterus) (Oryctolagus cuniculus, UniProt P06186); assay: Relative binding affinity, progesterone receptor; details: for RELATIVE BINDING AFFINITY Progesterone / BINDING AFFINITY Progester: progesterone = 100%; for binding affinities compared with the standard, compound 69B: progesterone receptor implied (rabbit or human isoform A not specified); for binding affinity for the progesterone receptor, in words: rabbit uterine, versus CDB-2914 (69B) where stated; for BINDING AFFINITY Progester: Table 2
T1 construct: preparation of cytosols for the progesterone and glucocorticoid receptor assays; from tissue; host or cells: uterus of estradiol-primed immature female New Zealand White rabbits (cytosol)
T1 sequence (P06186 1-930): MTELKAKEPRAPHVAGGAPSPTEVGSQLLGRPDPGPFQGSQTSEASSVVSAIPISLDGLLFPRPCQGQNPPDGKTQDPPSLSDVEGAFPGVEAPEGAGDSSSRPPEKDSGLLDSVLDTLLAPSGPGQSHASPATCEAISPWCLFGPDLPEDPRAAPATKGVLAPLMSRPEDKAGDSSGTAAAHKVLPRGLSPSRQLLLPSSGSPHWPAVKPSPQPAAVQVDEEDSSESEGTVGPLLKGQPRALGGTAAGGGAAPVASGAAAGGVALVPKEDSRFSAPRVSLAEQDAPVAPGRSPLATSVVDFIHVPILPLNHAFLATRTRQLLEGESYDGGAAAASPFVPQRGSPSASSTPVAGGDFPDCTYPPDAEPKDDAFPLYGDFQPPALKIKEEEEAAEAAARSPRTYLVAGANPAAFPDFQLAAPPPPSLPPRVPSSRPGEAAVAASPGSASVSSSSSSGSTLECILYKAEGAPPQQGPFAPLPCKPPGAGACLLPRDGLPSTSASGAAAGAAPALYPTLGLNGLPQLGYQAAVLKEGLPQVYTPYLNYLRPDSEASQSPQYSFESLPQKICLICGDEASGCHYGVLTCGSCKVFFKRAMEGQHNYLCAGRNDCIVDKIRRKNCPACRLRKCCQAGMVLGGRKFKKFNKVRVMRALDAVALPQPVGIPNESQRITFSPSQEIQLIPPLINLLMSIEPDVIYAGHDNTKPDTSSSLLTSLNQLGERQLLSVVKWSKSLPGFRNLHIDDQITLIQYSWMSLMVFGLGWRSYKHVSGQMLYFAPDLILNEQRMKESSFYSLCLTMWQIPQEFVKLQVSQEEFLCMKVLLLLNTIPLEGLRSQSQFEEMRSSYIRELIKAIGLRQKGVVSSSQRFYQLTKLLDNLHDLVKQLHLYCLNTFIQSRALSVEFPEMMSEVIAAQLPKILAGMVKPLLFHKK

[2] = tested on: progesterone-induced endometrial proliferation; assay: AntiMcGinty test; format: in vivo, rabbit; details: for ANTIPROGESTATIONAL Anti-McGinty: relative potency, CDB-2914 = 100 (assigned), rabbit; for ANTIPROGESTATIONAL Anti-McGinty / ANTIPROGESTATIONAL ACTIVITY ANTI-MCGINITY: intraluminal; for antiprogestational activity compared with the lead compound / standard, in words: antiMcGinty (and antiClauberg), versus CDB-2914 (69B); for ANTIPROGESTATIONAL ACTIVITY ANTI-MCGINITY: estrogen-primed immature rabbits, CDB-2477 = 1.0 (assigned)
Method: AntiMcGinty Test (McGinty, et al., Endocrinology, 24:829-832 (1939))
Immature female rabbits of the New Zealand White breed (approx. 1 kg body weight) were maintained under standard laboratory conditions and received a subcutaneous injection of 5 μg estradiol in 10% ethanol/sesame oil daily for 6 consecutive days. Twenty-four hours after the last injection of estradiol (day 7) animals underwent sterile abdominal surgery to ligate a 3-4 cm segment of both uterine horns. The experimental compound in appropriate solvent (usually 10% ethanol/sesame oil) was injected intraluminally into the ligated segment of one uterine horn and the vehicle alone into the ligated segment of the contralateral horn. Injection volume was limited to 0.1 ml, and care was taken to prevent leakage. A stimulating dose of progesterone (0.8 mg/day) was administered subcutaneously to each rabbit daily for the next three days (days 7, 8 and 9) for the purpose of inducing endometrial proliferation. All animals were sacrificed on day 10 when a segment central to the ligatures was removed and fixed in 10% neutral buffered formalin and submitted for histological processing. Five micron sections stained with hematoxylin and eosin (H&E) were evaluated microscopically for the degree of endometrial glandular proliferation according to the method of McPhail (McPhail, J. Physiol., 83:145 (1934). The percent inhibition of endometrial proliferation for each rabbit was calculated and the mean of the group of five animals recorded.

RELATIVE BINDING AFFINITY Progesterone ([1]; estrogen-primed rabbit uterus): 261%
SMILES: CN(C)c1ccc(C2CC3(C)C(CCC34OCC4=O)C3CCC4=CC(=O)CCC4=C23)cc1 (stereo not drawn) [Compound 12, 17-Spirooxetano-3′-oxo-11β-[4-(N,N-dimethylamino)phenyl]-19-norpregna-4,9-dien-3-one]
binding affinities compared with the standard, compound 69B [1]: binding affinities greater than that observed for the standard
ANTIPROGESTATIONAL Anti-McGinty [2]: 26

SMILES: CC(=O)O[C@]1(C(=O)CF)CCC2C3CCC4=CC(=O)CCC4=C3C(c3ccc(N(C)C)cc3)C[C@@]21C (stereo partly drawn) [Compound 13, 17α-acetoxy-21-fluoro-11β-[4-(N,N-dimethylamino)phenyl]-19-norpregna-4,9-diene-3,20-dione]
RELATIVE BINDING AFFINITY Progesterone ([1]; estrogen-primed rabbit uterus): 125%
binding affinities compared with the standard, compound 69B [1]: binding affinities greater than that observed for the standard
binding affinity for the progesterone receptor, in words [1]: did not show significant differences
antiprogestational activity compared with the lead compound / standard, in words [2]: did not show significant differences
ANTIPROGESTATIONAL Anti-McGinty [2]: 103

RELATIVE BINDING AFFINITY Progesterone ([1]; estrogen-primed rabbit uterus): 127%
binding affinity for the progesterone receptor, in words [1]: did not show significant differences
SMILES: CC(=O)O[C@]1(C(=O)CCl)CCC2C3CCC4=CC(=O)CCC4=C3C(c3ccc(N(C)C)cc3)C[C@@]21C (some centres unmarked) [Compound 14A]
binding affinities compared with the standard, compound 69B [1]: binding affinities greater than that observed for the standard
antiprogestational activity compared with the lead compound / standard, in words [2]: did not show significant differences
ANTIPROGESTATIONAL Anti-McGinty [2]: 75

SMILES: CC(=O)OCC(=O)[C@@]1(OC(C)=O)CCC2C3CCC4=CC(=O)CCC4=C3C(c3ccc(N(C)C)cc3)C[C@@]21C (stereo partly drawn) [Compound 15, 17α,21-diacetoxy-11β-[4-(N,N-dimethylamino)phenyl]-19-norpregna-4,9-diene-3,20-dione]
RELATIVE BINDING AFFINITY Progesterone ([1]; estrogen-primed rabbit uterus): 103%
ANTIPROGESTATIONAL Anti-McGinty [2]: 300

SMILES: CC(=O)O[C@]1(C(=O)CO)CCC2C3CCC4=CC(=O)CCC4=C3C(c3ccc(N(C)C)cc3)C[C@@]21C (stereo partly drawn) [Compound 41, 17α-acetoxy-21-hydroxy-11β-[4-(N,N-dimethylamino)phenyl]-19-norpregna-4,9-diene-3,20-dione]
RELATIVE BINDING AFFINITY Progesterone ([1]; estrogen-primed rabbit uterus): 62%

SMILES: CC(=O)O[C@]1(C(C)=O)CC[C@H]2[C@@H]3CCC4=CC(=O)CCC4=C3[C@@H](c3ccc(N(C)C)cc3)C[C@@]21C [Compound 69B, 17α-acetoxy-11β-(4-N,N-dimethylaminophenyl)-19-norpregna-4,9-diene-3,20-dione, reference compound]
BINDING AFFINITY Progester ([1]; estrogen-primed rabbit uterus): 122%
RELATIVE BINDING AFFINITY Progesterone ([1]; Table 3, immature estrogen-primed rabbit uterus): 114- %
RELATIVE BINDING AFFINITY Progesterone ([1]; estrogen-primed rabbit uterus): 122%
ANTIPROGESTATIONAL ACTIVITY ANTI-MCGINITY [2]: 0.56
ANTIPROGESTATIONAL Anti-McGinty [2]: 100

SMILES: CC(=O)O[C@]1(C(C)=O)CC[C@H]2[C@@H]3CCC4=CC(=O)CCC4=C3[C@@H](c3ccc(N4CCCCC4)cc3)C[C@@]21C [Compound 71, 17α-Acetoxy-11β-[4(N-Piperidino)phenyl]-19-norpregna-4,9-diene-3,20-dione]
BINDING AFFINITY Progester ([1]; estrogen-primed rabbit uterus): 123%
binding affinities compared with the standard, compound 69B [1]: binding affinities greater than that observed for the standard

SMILES: CC(=O)OCC(=O)[C@@]1(OC(C)=O)CC[C@H]2[C@@H]3CCC4=CC(=O)CCC4=C3[C@@H](c3ccc(C(C)=O)cc3)C[C@@]21C [Compound 106b, 17α,21-Diacetoxy-11β-(4-acetylphenyl)19-norpregna-4,9-diene-3,20-dione]
BINDING AFFINITY Progester ([1]; estrogen-primed rabbit uterus): 136%
binding affinities compared with the standard, compound 69B [1]: binding affinities greater than that observed for the standard

BINDING AFFINITY Progester ([1]; estrogen-primed rabbit uterus): 117%
binding affinity for the progesterone receptor, in words [1]: high binding affinity
SMILES: COCC(=O)[C@@]1(OC)CC[C@H]2[C@@H]3CCC4=CC(=O)CCC4=C3[C@@H](c3ccc(N(C)C)cc3)C[C@@]21C [Compound 113a, 17α,21-Dimethoxy-11β-[4-(N,N-dimethylamino)phenyl]-19-norpregna-4,9-diene-3,20-dione]
binding affinities compared with the standard, compound 69B [1]: binding affinities greater than that observed for the standard

SMILES: COCC(=O)C1(OC(C)=O)CCC2C3CCC4=CC(=O)CCC4=C3C(c3ccc(N4CCCCC4)cc3)CC21C (stereo not drawn) [Compound 123a, 17α-Acetoxy-1113-[4-(N-piperidino)phenyl]-21-methoxy-19-norpregna-4,9-diene-3,20-dione]
BINDING AFFINITY Progester ([1]; estrogen-primed rabbit uterus): 174%

SMILES: CC#C[C@]1(O)CC[C@H]2[C@@H]3CCC4=CC(=O)CCC4=C3[C@@H](c3ccc(N(C)C)cc3)C[C@@]21C [mifepristone]
binding affinity for the progesterone receptor, in words [1]: greater binding affinity
antiprogestational activity compared with the lead compound / standard, in words [2]: more potent than the standard
ANTIPROGESTATIONAL ACTIVITY ANTI-MCGINITY [2]: 1.0
